From US10272117B2, “Methods of using an activator of cereblon for neural cell expansion and the treatment of central nervous system disorders” (Celgene Corporation, priority 2014, dated 2019)
Peptide text beside a SMILES is read from it. * marks the point of attachment. Cbz = O=C(OCc1ccccc1)*

Experiments:
CRBN = assay: Detection of the CRBN ubiquitin ligase activity using live cells; format: cell-based; settings: mammalian cells expressing FLAG-CRBN, immunoblotting
Description: This process was carried out basically in accordance with the method of Ohtake et al. See Ohtake et al., Nature, 446:562-566 (2007). MG132, which was a proteasome inhibitor, was applied to mammalian cells expressing CRBN fused with a FLAG epitope tag, and the cells were left still. Subsequently, the cells were disrupted, and from the resulting cell lysate solution, FLAG was purified, and CRBN was extracted. Then immunoblotting was performed under similar, but stricter, conditions to the above, whereby self-ubiquitination was detected and measured.

zebrafish embryos = assay: Quantitative PCR of gene expression in zebrafish embryos; format: in vivo; settings: 11 hpf
Description: BRD7-knockdown zebrafish embryos show similar phenotypes as CRBN-overexpressing zebrafish embryos. For example, expression of HuC in untreated, CRBN-overexpressing, and BRD7-knockdown zebrafish embryos was compared by quantitative PCR. Quantitative PCR was performed as follows: 1.7 μg of random […] and oligo-dT primed cDNA synthesized by ReverTra Ace qPCR RT Kit (TOYOBO, Japan) (as template) were used for reverse transcription by THUNDERBIRD™ SYBR® qPCR Mix (Toyobo, Japan). 0.25 mM of each forward and reverse primers were used in the reaction, wherein the sequence of the forward primer was 5′-[…]-3′ (SEQ ID NO: 9); and the sequence of the reverse primer was 5′-[…]-3′ (SEQ ID NO: 10).
Expression of Pou5f1 (Oct3/4), c-Myc, Sox2, and Nanog in zebrafish embryos was analyzed by quantitative PCR. Quantitative RT (qRT)-PCR was performed as follows: 1.7 μg of random hexamer and oligo-dT primed cDNA synthesized by ReverTra Ace qPCR RT Kit (TOYOBO, Japan) (as template) were used for reverse transcription by THUNDERBIRD™ SYBR® qPCR Mix (Toyobo, Japan). 0.25 mM of each forward and reverse primers was used in the reaction. The sequences of primers for c-Myc are as follows: forward primer is 5′-[…]-3′ (SEQ ID NO: 15), and reverse primer is 5′-GTAAAACGACGGCCAGT-3′ (SEQ ID NO: 16). The sequences of primers for sox2 are as follows: forward primer is 5′-ACCCCGGAGGAAAACCAA-3′ (SEQ ID NO: 17), and reverse primer is 5′-CCCGGCAGGGTGTACTTG-3′ (SEQ ID NO: 18). The sequences of primers for nanog are as follows: forward primer is 5′-TACCCAACACACCAGCTTC-3′ (SEQ ID NO: 19), and reverse primer is 5′-GAAGGGTGTTTTTGGAGGA-3′ (SEQ ID NO: 20).
Expression of a pool of three genes, Ascl1, Brn2 (Pou3f2), and Myt1la, is sufficient to directly reprogram embryonic and postnatal fibroblasts into functional neurons. See, e.g., Vierbuchen and Wernig, Nat Biotechnol. 29:892-907 […]. […] Primer sequences for amplification for Ascl1a are as follows: forward primer is 5′-ACGAGCATGACGCCGTA-3′ (SEQ ID NO: 21), and reverse primer is 5′-[…]-3′ (SEQ ID NO: 22). Primer sequences for amplification for Pou3f2b are as follows: forward primer is 5′-[…]-3′ (SEQ ID NO: 23), and reverse primer is 5′-[…]-3′(SEQ ID NO: 24). Primer sequences for amplification for Myt1la are as follows: forward primer is 5′-[…]-3′ (SEQ ID NO: 25), and reverse primer is 5′-[…]-3′ (SEQ ID NO: 26). FIG. […]
Notch3 and Neuropilin2b (Nrp2b) are required for cell proliferation progression. Notch3 regulates the timing of neural differentiation from undifferentiated or immature cells, and Nrp2b regulates cell proliferation and remodeling in mesenchymal stem cells by cooperating with PDGF (platelet-derived growth factor). Therefore, expression of Notch3 and Neuropilin 2b (Nrp2b) was analyzed in untreated and CRBN-overexpressing zebrafish embryos by quantitative PCR. The primers used for Notch3 are as follows: the sequence for forward primer is 5′-[…]-3′ (SEQ ID NO: 27), and the sequence for reverse primer is 5′-[…]-3′ (SEQ ID NO: 28). The primers used for Nrp2b are as follows: the sequence of forward primer is 5′-[…]-3′ (SEQ ID NO: 29), and the sequence of reverse primer is 5′-[…]-3′ (SEQ ID NO: 30). FIG. 29A is a histogram showing the mRNA level of Notch3 and Nrp2b in untreated, CRBN-overexpressing, and thalidomide-treated zebrafish embryos at 11 hpf by quantitative PCR. As shown, expression of Notch3 in the CRBN-overexpressing embryos increased to 1.8-fold of the level in the untreated embryos at 11 hpf, and expression of Nrp2b in the CRBN-overexpressing embryos increased to 2.7-fold of the level in the untreated embryos at the same stage.
Elval3 (Huc) is a neural progenitor marker. Expression of Elavl3 (Huc) was also analyzed by quantitative PCR and in situ hybridization. […]

zebrafish = assay: Resistance to thalidomide in brain development (brain thickness to body length); format: in vivo; settings: BRD7-knockdown larvae, 400 μM thalidomide
Description: To analyze the functional relationship between thalidomide and BRD7, brain development of BRD7-knockdown zebrafish treated with thalidomide was examined and compared with that of normal zebrafish treated with thalidomide. […] FIGS. 12A and 12B show the normal zebrafish treated with 400 μM thalidomide. FIGS. 12C and 12D show the BRD7-knockdown zebrafish treated with 400 μM thalidomide. FIGS. 12A′ and 12C′ show the brain regions of the normal zebrafish treated with 400 μM thalidomide. FIGS. 12B′ and 12D′ show the brain regions of the BRD7-knockdown zebrafish treated with 400 μM thalidomide. […] The percentages of brain thickness to body length in the normal and the BRD7-knockdown zebrafish, with or without thalidomide treatments were also measured. […] The brain size of the BRD7-knockdown larvae incubated in thalidomide is 98.8% of that of the BRD7-knockdown larvae incubated in the absence of thalidomide.

[1] = fold of level in untreated embryos

Row | Compound | bands representing CRBN-containing (self-ubiquitinated) proteins (CRBN) | expression of Nanog (change) (zebrafish embryos; FIG. 13) | expression of Pou5f1 (change) (zebrafish embryos; FIG. 13) | expression of Zic3 (change) (zebrafish embryos; FIG. 13) | Notch3 mRNA expression (zebrafish embryos; [1]) [fold] | Nrp2b mRNA expression (zebrafish embryos; [1]) [fold] | brain size of BRD7-knockdown larvae incubated in thalidomide relative to absence of thalidomide (zebrafish) [%]
1 | CC(C)C[C@@H](C=O)NC(=O)[C@H](CC(C)C)NC(=O)[C@H](CC(C)C)NC(=O)OCc1ccccc1 [MG132] (Cbz-Leu-Leu-Leu-aldehyde) | a number of bands representing CRBN-containing proteins were detected | – | – | – | – | – | –
2 | O=C1CCC(N2C(=O)c3ccccc3C2=O)C(=O)N1 (stereo not shown) [thalidomide, reference compound] | – | decreased | decreased | decreased | 0.3 | 0.4 | 98.8
